Consider 3 compounds from article PMC7682835, “A novel G protein-coupled receptor for starfish gonadotropic hormone, relaxin-like gonad-stimulating peptide” (PLoS ONE, 2020).

For one test, the system named is starfish. The following applies: injection of 1-MeAde compared with RGP; cited from earlier work. The source says:
(§1) Although RGP is the primary mediator of oocyte maturation and ovulation, the effect of RGP is indirect. RGP secreted by radial nerve cords induces ovarian follicle cells to produce 1-methyladenine (1-MeAde) as a maturation-inducing hor ...

Test [1] concerns Patiria pectinifera ovarian follicle cells. Kind of test: 1-MeAde production by follicle cells. Format: cell-based. Conditions: follicle cells (ten million in 1 ml ASW), 2 h at 20°C; 1-MeAde released into medium by biological assay; three independent samples. As to the method:
(§2) Ten million follicle cells were incubated for 2 h at 20°C in 1 ml of ASW in the presence of PpeRGP or AamRGP, with occasional shaking. The cell suspension was then centrifuged at 1,000 g for 1 min and quickly frozen in liquid nitrogen. Supernatants were analyzed for the amount of 1-MeAde released from follicle cells. The concentration of 1-MeAde was determined by a method previously described, using authentic 1-MeAde as the standard reference. The frozen follicle cells were analyzed for the amount of intracellular cAMP using a BIOTRAK cAMP EIA system (GE Healthcare). The mean was determined from three separate assays using three different animals and standard error of the mean (SEM).
(§3) Fig 4 Effect of RGP on 1-MeAde and cAMP production in Patiria pectinifera ovarian follicle cells. (A) Amino acid alignments of A- and B-chains in P. pectinifera (PpeRGP) and Asterias amurensis (AamRGP). To illustrate the conserved features, the amino acid types are color coded according to their properties, with basic residues in blue (Arg, Lys and His), acidic residues in red (Glu and Asp), hydrophobic residues in green (Ala, Val, Ile, Phe, Trp, Tyr, Pro and Met), hydrophilic in black (Ser, Thr, Asn and Gln) and glycine in light blue. The cysteine residues are highlighted in yellow and disulfide bonds are shown with solid dark red lines. […] Intracellular cAMP content was determined by EIA. […]

A further test concerns PpeRGPR. In words: Intracellular calcium mobilization (Fluo-8) in Sf9 cells transfected with Gαq16-fused PpeRGPR. In kind it is cell-based, Patiria pectinifera. The following applies: for Effect on calcium signaling (result in words): Fluo-8, 490/514 nm. On the procedure: Functional characterization of PpeRGPR was performed using Sf9 cells and baculovirus-based expression methods, as previously reported. The open reading frame (ORF) of human Gαq16 protein (OriGene, Rockville, MD, USA), which couples with GPCRs and triggers intracellular calcium mobilization upon binding of a specific ligand [33] was subcloned into the XbaI site of the pFastbacI plasmid (Invitrogen, Waltham, MA, USA). PpeRGPR was then cloned into the NotI/XbaI site of the Gαq16-ligated pFastbacI plasmids. Transformation of competent cells with the PpeRGPR-Gαq16-pFastbacI plasmid and the resulting bacmid isolation was performed according to the manufacturer’s instructions for the Bac-to-Bac system (Thermo Fisher Scientific, Waltham, MA, USA).
Sf9 cells (Thermo Fisher Scientific) were grown in Sf900 II (Thermo Fisher Scientific) containing 10% FBS (Sigma-Aldrich) at 28°C. PpeRGPR-Gαq16-recombinant baculoviruses were prepared from Sf9 cells transfected with the above bacmids using Cellfectin II (Thermo Fisher Scientific), titrated, isolated, and transiently transfected into Sf9 cells, as previously described. Sf9 cells were plated at 1.2×10^5 cells/well (on a 96-well plate) or 2.4×10^5 cells (on a glass bottom dish) prior to transfection. Forty-eight hours after transfection, Sf9 cells were loaded for 30 min with 2.5 μM of Fluo-8 AM (AAT Bioquest, Sunnyvale, CA, USA) diluted in loading buffer [HBSS supplemented with 1.25 mM probenecid and 0.04% (wt/vol) pluronic F-127] [32]. Cell membrane expression of PpeRGPR-fused human Gαq16 was confirmed by immunostaining using the anti-Gαq16 antibody (OriGene, TA318890) in comparison with non-transfected Sf9 cells (wild type). Dose-dependent responses to PpeRGP or AamRGP were measured using a FlexStation II-automated apparatus (Molecular Devices, San Jose, CA, USA) at the excitation/emission wavelengths of 490/514 nm. Calcium accumulation data were analyzed using Prism v6 (GraphPad Software, San Diego, CA, USA) to fit to a sigmoidal concentration-response curve, as previously described. The dose-response curve was statistically evaluated by analysis of variance. Significant activation of PpeRPGR by PpeRGP compared with AamRGP at each concentration was also examined by Student t test.
Fig 2 Intracellular calcium mobilization in Sf9 cells. (A, B) Sf9 cells were transfected with Gαq16- fused PpeRGPR-recombinant baculovirus (A) and non-transfected Sf9 cells were used as wild type controls (B). Expression of PpeRGPR in Sf9 cells was examined by immunostaining using an anti-Gαq16 antibody. Immunoreactivity was observed using a fluorescence microscope after incubation with an Alexa Fluor 488-conjugated secondary antibody. […] Scale bars represent 50 μm. […] Each dose-response curve was statistically evaluated by analysis of variance. […]

The subject of test [2] is PpeRGPR in P. pectinifera ovarian follicle cells. Kind of test: Competitive binding assay, 125I-PpeRGP versus unlabeled RGP, follicle cell homogenates. On the set-up: species or system Patiria pectinifera. The following applies: 2 h at 20°C, four separate assays; for Effect of unlabeled peptide on 125I-PpeRGP binding (result in words): follicle cell homogenates (25 μg of protein), 125I-PpeRGP about 100,000 cpm, final concentration 1.1 pM, total volume 0.5 ml, four animals. On the procedure: Follicle cells were homogenized using a Teflon homogenizer in 25 mM Tris-HCl (pH 7.4) containing 10 mM MgCl2. Protein concentrations were measured using a Bio-Rad protein assay kit (Bio-Rad Laboratories, Hercules, CA, USA).
The radioiodination of PpeRGP with Na^125I (carrier free; GE Healthcare, Buckinghamshire, UK) was carried out at room temperature in accordance with the modified lactoperoxidase method, as described previously. The specific activity of radioiodinated PpeRGP (^125I-PpeRGP) was estimated to be 150 μCi/μg.
The specificity of RGP binding was examined using whole homogenates of follicle cells. Preparations were adjusted to yield a protein concentration of 10 mg/ml with the homogenizing medium plus 0.1% (wt/vol) BSA, and stored at -80°C until use. The binding assay was performed using competition experiments between labeled PpeRGP and unlabeled PpeRGP or AamRGP, as described previously. Data were obtained from four separate assays using follicle cells from ovaries of four different animals.
Fig 3 Competitive inhibition curves of ^125I-PpeRGP binding to Patiria pectinifera ovarian follicle cells in the presence of unlabeled PpeRGP or AamRGP. P. pectinifera ovarian follicle cell homogenates (25 μg of protein) were incubated for 2 h at 20°C in assay buffer containing ^125I-PpeRGP (about 100,000 cpm; 2.087 pg/[…]; total volume 0.5 ml, final concentration 1.1 pM) in the presence of serially diluted unlabeled PpeRGP (●) or AamRGP (○). Specific binding was obtained by subtracting nonspecific binding from total binding. Data were obtained from four separate assays using follicle cells from ovaries of four different animals.

Test [3] concerns Patiria pectinifera ovarian follicle cells. In words: Intracellular cAMP production in follicle cells. Format: cell-based. The following applies: follicle cells (ten million in 1 ml ASW), 2 h at 20°C; intracellular cAMP by EIA; three independent samples. As to the method: as §2, §3
On the technique in general: Cyclic AMP is a second messenger, typically raised through Gs and lowered through Gi signalling.

The subject of another test is P. pectinifera ovaries. Conditions: approximately; in vitro spawning; read-out: Median effective concentration of in vitro spawning; cited from earlier work. The source says:
Since cDNA encoding the PpeRGPR was cloned from P. pectinifera follicle cells (Fig 1), PpeRGPR should be expressed on follicle cell surface. […] In contrast to PpeRGP, AamRGP had no effects on binding to P. pectinifera follicle cells (Fig 3), as well as 1-MeAde and cAMP production (Fig 4B) or calcium signals in PpeRGPR-expressing Sf9 cells (Fig 2C). […] Based on 3D structural models, P^A17 of PpeRGP and R^A18 of AamRGP are located near their respective B-cha ...

For test [4], the system named is males and females of P. pectinifera. Conditions: injection of synthetic PpeRGP into males and females with fully-grown testes and ovaries; cited from earlier work.
Source text: as §1

The subject of test [5] is ovarian fragments of P. pectinifera. Conditions: synthetic PpeRGP, within 30 min of incubation; cited from earlier work.
Source text: as §1

Test [6] relates to Patiria pectinifera ovarian follicle cells. The following applies: isolated follicle cells cultured with PpeRGP, cited from earlier work. The text has this: However, the RGP receptor (RGPR) remains to be identified in s ...
Test [7] deals with membrane preparation of ovarian follicle cells of P. pectinifera. The following applies: cited from earlier work.
[8] abbreviates: Sf9 cells with Gαq16-fused PpeRGPR, three to seven independent samples.

`Cn1cnc2ncnc-2c1N` [1-MeAde, 1-methyladenine]: the “Interval preceding the discharge of gametes after injection (result in words)” value in the test with starfish is listed as “almost equal to those found after injection of RGP”.

For “relaxin-like gonad-stimulating peptide of Asterias amurensis [AamRGP, reference compound]”, in test [1], the “Effect on 1-MeAde production (result in words)” value was “no effects”. Moreover, the “Effect on calcium signaling (result in words)” value in the test with PpeRGPR (setting [8]) was “no effect on calcium signaling”. Besides, in test [2], the “Effect of unlabeled peptide on 125I-PpeRGP binding (result in words)” value is “no effect on ^125I-PpeRGP binding”. Further, the “Effect on cAMP production (result in words)” value in test [3] was “no effects”.

Take “relaxin-like gonad-stimulating peptide of Patiria pectinifera [PpeRGP]”: the EC50 with P. pectinifera ovaries was 1 to 2 nM; with PpeRGPR (Sf9 cells transfected with Gαq16-fused PpeRGPR baculovirus, 48 h, Fluo-8 AM 2.5 μM, FlexStation II, 490/514 nm, sigmoidal fit, three to seven independent samples, read-out: EC50, calcium signaling), 11.1 nM. For the same compound, the “Spawning behavior and spawning after injection (result in words)” value in test [4] is “spawning behavior and subsequent spawning were observed”. In addition, in test [5], the “Induction of oocyte maturation and ovulation (result in words)” value was “induced oocyte maturation and ovulation”. In addition, the “Concentration above which calcium signaling is significantly increased” value in the test with PpeRGPR (Sf9 cells with Gαq16-fused PpeRGPR, Fluo-8) is on record as “above 1 nM”. The “Effect on calcium signaling (result in words)” value in the test on PpeRGPR (setting [8]) was “significantly increased calcium signaling at concentrations above 1 nM in a dose-dependent manner”. Moreover, in test [6] (coinciding with cAMP increase), the “1-MeAde production in isolated follicle cells (result in words)” value is given as “increase”. The “cAMP production in isolated follicle cells (result in words)” value in test [6] is on record as “dose-related increase”. Also, in test [2] (Scatchard plot analysis, follicle cell homogenates, 125I-PpeRGP, read-out: Dissociation constant (Kd)), the dissociation constant (Kd) is approximately 0.67 nM. Besides, in [2], the “Effect of unlabeled peptide on 125I-PpeRGP binding (result in words)” value is recorded as “decreased in a dose-dependent manner”. The “Binding to follicle cell membrane preparation (result in words)” value in test [7] is “binds specifically”.

Broadly, the Kd is the free concentration of one partner at which half of the binding sites on the other are occupied at equilibrium, for simple one-to-one binding.
